Data taken from article PMC13198257, “An aerosolized dual-action autotaxin inhibitor-PPARγ agonist for the treatment of pulmonary fibrosis” (Cell Reports Medicine, 2026).

Tested on: lung gene expression
Assay: RNA sequencing of lung tissue (BLM/EL244 vs BLM)
Assay type: in vivo, mouse
Conditions: lung tissue, BLM/EL244 vs BLM
Experimental: RNA quality was assessed using an Agilent TapeStation 4150 with the High Sensitivity […] ScreenTape (Agilent), according to the manufacturer’s protocols. For library preparation, the QuantSeq 3’mRNA-Seq Library Prep Kit (Lexogen) was used according to manufacturer’s instructions. Briefly, 500 ng of RNA from each sample was used for first-strand synthesis, followed by RNA template removal, and second-strand synthesis initiated by random primers. In-line barcodes were introduced at this step, and this was followed by magnetic bead-based purification. The resulting libraries were amplified for 15 cycles and re-purified, with quantity and quality assessed on a Qubit 4 Fluorometer with the Invitrogen Qubit dsDNA HS Assay and an Agilent Tapestation 4150 with the High Sensitivity D1000 assay kit, respectively. The quantified libraries were pooled equimolarly; 50ng of total library mix was used for Adapter Conversion PCR Amplification using the Universal Library Conversion Kit (App-A), Version: V1.0 (MGI Tech Co., Ltd.), according to the manufacturer’s instructions.
The quantity and quality of the purified adapter conversion PCR (AC-PCR) product were evaluated on a Qubit 4 Fluorometer with the Invitrogen Qubit dsDNA HS Assay and on an Agilent Tapestation 4150 with the High Sensitivity D1000 assay kit, respectively. This was followed by DNA denaturation, Single-Strand Circularisation, Enzymatic Digestion, Enzymatic Digestion Product Cleanup and Quality Control steps on 1 pmol of AC-PCR product, according to the Universal Library Conversion Kit (App-A) User Manual (Version: A3).
Finally, 60 fmol of ssCirDNA were used for DNB preparation and sequencing on a DNBSEQ-G400 platform at the BSRC Alexander Fleming Genomics Facility, using a G400 App-A FCS SE100 High-throughput Sequencing Set (MGI Tech Co., Ltd.), according to the manufacturer’s instructions.
Alignment of the FASTQ files was performed against the mouse genome build mm10 using a custom Bash script.[143] Read counting on the 3′ UTRs and differential expression analysis were conducted using the metaseqR2 bioconductor package.[144] Genes corresponding to the following biotypes were excluded: polymorphic_pseudogene, processed_transcript, pseudogene, IG_V_pseudogene, misc_RNA, IG_C_gene, IG_J_gene, IG_D_gene, IG_LV_gene, TR_V_gene, TR_V_pseudogene, TEC, and processed_pseudogene. Gene counts were normalized with DESEQ[145] through metaseqR2. Genes with more than 10 counts in at least 50% of the samples were kept for further processing. For differential expression analysis, the PANDORA algorithm[146] was used to estimate a meta p-value integrating the results from the DESEQ, DESEQ2,[147] edgeR,[148] limma,[149] NBPSeq,[150] and NOISeq[151] algorithms. All additional parameters were set to default values.
Pathway enrichment analysis was performed for the Gene Ontology Biological process (BP) and Molecular Function (MF) terms through GeneCodis 4.[152] The volcano plots, scatterplots, Venn diagrams, and dot plots were generated using the ggplot2 Bioconductor package.

O=C1NC(=O)C(Cc2ccc(OCCC3CCN(C(=O)OCc4cc(Cl)cc(Cl)c4)CC3)cc2)S1 (stereo not shown) [EL244, 3,5-dichlorobenzyl 4-(2-(4-((2,4-dioxothiazolidin-5-yl)methyl)phenoxy)ethyl)piperidine-1-carboxylate]
Cdk19 log2 nFC: -0.64
Cdk19 nFC: 0.64
Cdkn3 log2 nFC: -1.68
Cdkn3 nFC: 0.31
Cenpe log2 nFC: -1.70
Cenpe nFC: 0.31
Cenpf log2 nFC: -2.20
Cenpf nFC: 0.22
Cenph log2 nFC: -2.04
Cenph nFC: 0.24
Cenpk log2 nFC: -1.51
Cenpk nFC: 0.35
Cenpn log2 nFC: -1.74
Cenpn nFC: 0.30
Cenps log2 nFC: -1.80
Cenps nFC: 0.29
Cfp log2 nFC: -0.83
Cfp nFC: 0.56
Chl1 log2 nFC: -3.49
Chl1 nFC: 0.09
Chsy3 log2 nFC: -1.56
Chsy3 nFC: 0.34
Ckap2l log2 nFC: -2.06
Ckap2l nFC: 0.24
Ckap2 log2 nFC: -2.44
Ckap2 nFC: 0.18
Ckap4 log2 nFC: -0.63
Ckap4 nFC: 0.65
Ckb log2 nFC: -0.61
Ckb nFC: 0.65
Cks1b log2 nFC: -1.54
Cks1b nFC: 0.34
Clca3a1 log2 nFC: -2.06
Clca3a1 nFC: 0.24
Cldn4 log2 nFC: -1.99
Cldn4 nFC: 0.25
Clmp log2 nFC: -0.78
Clmp nFC: 0.58
Clspn log2 nFC: -1.79
Clspn nFC: 0.29
Clu log2 nFC: -0.81
Clu nFC: 0.57
Cmtm3 log2 nFC: -0.60
Cmtm3 nFC: 0.66
Col1a1 log2 nFC: -2.02
Col1a1 nFC: 0.25
Col3a1 log2 nFC: -1.54
Col3a1 nFC: 0.34
Col4a1 log2 nFC: -0.75
Col4a1 nFC: 0.59
Col4a2 log2 nFC: -0.64
Col4a2 nFC: 0.64
Col5a1 log2 nFC: -1.52
Col5a1 nFC: 0.35
Col5a2 log2 nFC: -1.48
Col5a2 nFC: 0.36
Col5a3 log2 nFC: -1.53
Col5a3 nFC: 0.35
Col6a2 log2 nFC: -0.67
Col6a2 nFC: 0.63
Col6a3 log2 nFC: -0.77
Col6a3 nFC: 0.59
Cped1 log2 nFC: 0.63
Cped1 nFC: 1.55
Cthrc1 log2 nFC: -2.00
Cthrc1 nFC: 0.25
Ctnnbip1 log2 nFC: -0.62
Ctnnbip1 nFC: 0.65
Ctsb log2 nFC: -0.75
Ctsb nFC: 0.59
Ctsh log2 nFC: -0.63
Ctsh nFC: 0.64
Cxcl9 log2 nFC: -1.62
Cxcl9 nFC: 0.32
Cxcl10 log2 nFC: -1.90
Cxcl10 nFC: 0.27
Cxcl12 log2 nFC: -0.67
Cxcl12 nFC: 0.63
Cxcl13 log2 nFC: -1.42
Cxcl13 nFC: 0.37
Cyth4 log2 nFC: -0.71
Cyth4 nFC: 0.61
Cytip log2 nFC: 0.63
Cytip nFC: 1.54
Ddr1 log2 nFC: -0.66
Ddr1 nFC: 0.63
Dnmt1 log2 nFC: -0.84
Dnmt1 nFC: 0.56
Dtl log2 nFC: -1.94
Dtl nFC: 0.26
Dtx4 log2 nFC: -0.70
Dtx4 nFC: 0.61
E2f8 log2 nFC: -1.57
E2f8 nFC: 0.34
Ect2 log2 nFC: -1.89
Ect2 nFC: 0.27
Efnb2 log2 nFC: 0.61
Efnb2 nFC: 1.53
Eln log2 nFC: -2.07
Eln nFC: 0.24
Emid1 log2 nFC: -0.78
Emid1 nFC: 0.58
Emilin1 log2 nFC: -0.84
Emilin1 nFC: 0.56
Emp1 log2 nFC: -0.70
Emp1 nFC: 0.62
Enc1 log2 nFC: -0.80
Enc1 nFC: 0.57
Epas1 log2 nFC: 0.67
Epas1 nFC: 1.59
Epb41 log2 nFC: 0.61
Epb41 nFC: 1.52
Espl1 log2 nFC: -1.71
Espl1 nFC: 0.31
Evi2a log2 nFC: -0.82
